According to publication PMC6706930, “A novel oral micellar fenretinide formulation with enhanced bioavailability and antitumour activity against multiple tumours from cancer stem cells” (Journal of Experimental & Clinical Cancer Research : CR, 2019):
Like-named read-outs stand apart in the source and are kept apart here.

Assay: Plasma pharmacokinetics, acute study (single oral administration)
Format: in vivo, CD1 female mice
Conditions: for Cmax / AUC(0-t) / Tmax / HL / Cmax ±SD / AUC 0-last: plasma analyte; for amount of metabolite in plasma in comparison to 4-HPR: study of multiple doses, after Bio-nFeR administration
Procedure: The experiments were performed in CD1 female mice, 7 weeks of age, (body weight 25 ± 2 g) obtained from Envigo RMS SrL (Udine, Italy). They were maintained under specific-pathogen-free conditions with constant temperature and humidity, according to institutional guidelines regularly checked by a certified veterinarian. Animal experimentation was conducted in conformance with the following laws, regulations, and policies governing the care and use of laboratory animals: Italian Governing Law (D. l. 26/2014; Authorization n.19/2008-A issued March 6, 2008 by the Ministry of Health). Mario Negri Institutional Regulations and Policies providing internal authorizations for persons conducting animal experiments (Quality Management System Certificate –UNI EN ISO 9001:2008 – Reg. N 86121). The experimental protocol was reviewed by the Mario Negri Institute Ethical Committee and approved by the Italian Ministry of Health (Aut. Min. No 489/2016-Pr).
The pharmacokinetics of oral Bio-nFeR was investigated in comparison to that of the reference formulation NCI-FeR, after single administration of multiple doses and after chronic administrations, daily for 2 weeks or bi-daily for 1 week. Bio-nFeR was reconstituted at 20 mg/mL fenretinide to allow the administration of 200 mg/Kg fenretinide that corresponded to the highest dose. The doses of 100, 50 and 10 mg/Kg were administered by using serial dilution of the 20 mg/mL solution.
NCI-FeR prepared, as per the NCI instructions, at 11.6% w:w fenretinide:internal capsule components, was diluted with corn oil to obtain the treatment solutions at the concentrations of 20, 15 and 10 mg/mL, corresponding to the administered doses of 200, 150 and 100 mg/Kg respectively.
The oral pharmacokinetics of Bio-nFeR were investigated in four independent groups of 24 mice, randomized to receive different treatment with the following fenretinide equivalent doses: 10, 50, 100 and 200 mg/Kg. The drug was administered by oral gavage and after treatment, blood samples were taken at 15 and 30 min and at 1, 2, 4, 8/10, 24 and 48 h and collected in heparinized tubes from the retro-orbital plexus of the mice under isoflurane anesthesia. Mice were then sacrificed by cervical dislocation and liver, kidney and brain were removed and immediately frozen in dry-ice for future determination. To obtain plasma, blood was centrifuged at 4000 rpm for 10 min at 4 °C. To evaluate fenretinide and metabolites excretion, urine and faeces were collected over a 0–24 h and 24–48 h periods. The collection was performed in three mice per group of treatment, individually housed into metabolic cages for urine and faeces collection. All the biological samples were stored at − 20 °C until analysis. To compare the absorption of Bio-nFeR to NCI-FeR and to study the bioavailability, another independent groups of 24 mice were randomized to receive an oral dose of 200 mg/Kg of NCI-FeR. Blood samples were taken at the time reported above. Twenty-four hours fractions of urine and faeces were collected in three mice per group of treatment. Plasma and the other biological specimens were stored at − 20 °C until analysis. Chronic study: the oral pharmacokinetic of Bio-nFeR in comparison with NCI-FeR were also investigated after chronic administrations. Mice were divided in three independent groups, randomized to receive a single treatment of 150 mg/Kg or different repeated treatments of 150 mg/Kg, daily for 2 weeks (12 days on and 2 days off), or 100 mg/Kg bi-daily for 1 week (5 days on 2 days off). Bio-nFeR and NCI-FeR were administered by oral gavage, collecting blood samples at 0.5, 1, 2, 4, 8/10 and 24 h, the day of the single treatment and at 0, 1, 2, 4, 8/10, 24 and 48 h after the last dose of both the chronic treatments. The procedures of blood collection, plasma preparation, sacrifice of mice and storing of samples were as reported in acute study. […]

[1] = female, CD1, mouse, plasma, po, 200 mg/kg, single oral Bio-nFeR, 4-HPR dose 200mg/Kg, Suppl. Table 2 B
[2] = female, CD1, mouse, plasma, po, 200 mg/kg, single oral NCI-nFeR, 4-HPR dose 200mg/Kg, Suppl. Table 2 B
[3] = single oral Bio-nFeR 10 mg/kg, Suppl. Table 2 A
[4] = single oral Bio-nFeR 50 mg/kg, Suppl. Table 2 A
[5] = single oral Bio-nFeR 100 mg/kg, Suppl. Table 2 A
[6] = single oral Bio-nFeR 200 mg/kg, Suppl. Table 2 A
[7] = single oral Bio-nFeR, 4-HPR dose 200mg/Kg, Suppl. Table 2 B
[8] = single oral NCI-nFeR, 4-HPR dose 200mg/Kg, Suppl. Table 2 B
[9] = mice, single oral Bio-nFeR 10 mg/kg, Suppl. Table 2 A
[10] = mice, single oral Bio-nFeR 50 mg/kg, Suppl. Table 2 A
[11] = mice, single oral Bio-nFeR 100 mg/kg, Suppl. Table 2 A
[12] = mice, single oral Bio-nFeR 200 mg/kg, Suppl. Table 2 A

**Q.** With CC1=C(/C=C/C(C)=C/C=C/C(C)=C/C(=O)Nc2ccc(O)cc2)C(C)(C)CCC1 [4-HPR, 4-hydroxy (phenyl)retinamide, reference compound] as the molecule, how does the Cmax (female, CD1, mouse, plasma, po, 10 mg/kg, mice, single oral Bio-nFeR 10 mg/kg, Suppl. Table 2 A) read?
**A.** Its Cmax is 601 ng/mL.

**Q.** And the AUC(0-t) (female, CD1, mouse, plasma, po, 10 mg/kg, single oral Bio-nFeR 10 mg/kg, Suppl. Table 2 A)?
**A.** Its AUC(0-t) is 6750 ng·h/mL.

**Q.** What about the Tmax (female, CD1, mouse, plasma, po, 10 mg/kg, single oral Bio-nFeR 10 mg/kg, Suppl. Table 2 A, read-out: Tmax) of the same molecule?
**A.** Its Tmax is 2 h.

**Q.** And the Cmax (female, CD1, mouse, plasma, po, 50 mg/kg, mice, single oral Bio-nFeR 50 mg/kg, Suppl. Table 2 A)?
**A.** The Cmax was 3650 ng/mL.

**Q.** What about the AUC(0-t) (female, CD1, mouse, plasma, po, 50 mg/kg, single oral Bio-nFeR 50 mg/kg, Suppl. Table 2 A) of the same molecule?
**A.** Its AUC(0-t) is 39200 ng·h/mL.

**Q.** And the Tmax (female, CD1, mouse, plasma, po, 50 mg/kg, single oral Bio-nFeR 50 mg/kg, Suppl. Table 2 A, read-out: Tmax)?
**A.** Its Tmax is 4 h.

**Q.** And the Cmax (female, CD1, mouse, plasma, po, 100 mg/kg, mice, single oral Bio-nFeR 100 mg/kg, Suppl. Table 2 A)?
**A.** The Cmax was 5340 ng/mL.

**Q.** And the AUC(0-t) (female, CD1, mouse, plasma, po, 100 mg/kg, single oral Bio-nFeR 100 mg/kg, Suppl. Table 2 A)?
**A.** Its AUC(0-t) is 66300 ng·h/mL.

**Q.** And the Tmax (female, CD1, mouse, plasma, po, 100 mg/kg, single oral Bio-nFeR 100 mg/kg, Suppl. Table 2 A, read-out: Tmax)?
**A.** Its Tmax is 4 h.

**Q.** And the Cmax (female, CD1, mouse, plasma, po, 200 mg/kg, mice, single oral Bio-nFeR 200 mg/kg, Suppl. Table 2 A)?
**A.** Its Cmax is 6840 ng/mL.

**Q.** And the AUC(0-t) (female, CD1, mouse, plasma, po, 200 mg/kg, single oral Bio-nFeR 200 mg/kg, Suppl. Table 2 A)?
**A.** Its AUC(0-t) is 113000 ng·h/mL.

**Q.** And the Tmax (female, CD1, mouse, plasma, po, 200 mg/kg, single oral Bio-nFeR 200 mg/kg, Suppl. Table 2 A, read-out: Tmax)?
**A.** Its Tmax is 2 h.

**Q.** And the AUC(0-t) [1]?
**A.** Its AUC(0-t) is 113000 ng·h/mL.

**Q.** What about the Cmax [1] of the same molecule?
**A.** The Cmax was 6840 ng/mL.

**Q.** And the Tmax (female, CD1, mouse, plasma, po, 200 mg/kg, single oral Bio-nFeR, 4-HPR dose 200mg/Kg, Suppl. Table 2 B, read-out: Tmax)?
**A.** Its Tmax is 2 h.

**Q.** What about the AUC(0-t) [2] of the same molecule?
**A.** Its AUC(0-t) is 97900 ng·h/mL.

**Q.** And the Cmax [2]?
**A.** The Cmax was 8460 ng/mL.

**Q.** And the Tmax (female, CD1, mouse, plasma, po, 200 mg/kg, single oral NCI-nFeR, 4-HPR dose 200mg/Kg, Suppl. Table 2 B, read-out: Tmax)?
**A.** Its Tmax is 4 h.

**Q.** And the half-life (female, CD1, mouse, plasma, mice, oral Bio-nFeR, different doses, read-out: elimination half-life (converted))?
**A.** Its half-life is about 7 h.

**Q.** And the HL [3]?
**A.** The HL was 7.5 h.

**Q.** What about the HL [4] of the same molecule?
**A.** Its HL is 7.3 h.

**Q.** What about the HL [5] of the same molecule?
**A.** Its HL is 6.5 h.

**Q.** What about the HL [6] of the same molecule?
**A.** The HL was 7.2 h.

**Q.** What about the HL [7] of the same molecule?
**A.** The HL was 7.2 h.

**Q.** And the HL [8]?
**A.** The HL was 6.7 h.

**Q.** Which “Cmax ±SD” value [9] does the source give for CC1=C(/C=C/C(C)=C/C=C/C(C)=C/C(=O)Nc2ccc(O)cc2)C(C)(C)CCC1=O [4-oxo-4-HPR] here?
**A.** Its value is 505.1 ng/mL.

**Q.** What about the “Cmax ±SD” value [10] of the same molecule?
**A.** The value was 2389.1 ng/mL.

**Q.** What about the “Cmax ±SD” value [11] of the same molecule?
**A.** Its value is 3109.1 ng/mL.

**Q.** What about the “Cmax ±SD” value [12] of the same molecule?
**A.** Its value is 4071.2 ng/mL.

**Q.** What about the “AUC 0-last” value [3] of the same molecule?
**A.** The value was 4145.3 ng·h/mL.

**Q.** What about the HL [3] of the same molecule?
**A.** The HL was 5.2 h.

**Q.** And the Tmax [3]?
**A.** The Tmax was 2 h.

**Q.** What about the “AUC 0-last” value [4] of the same molecule?
**A.** The value was 24372.6 ng·h/mL.

**Q.** And the HL [4]?
**A.** The HL was 5.4 h.

**Q.** And the Tmax [4]?
**A.** Its Tmax is 4 h.

**Q.** What about the “AUC 0-last” value [5] of the same molecule?
**A.** Its value is 38500.3 ng·h/mL.

**Q.** What about the HL [5] of the same molecule?
**A.** The HL was 4.8 h.

**Q.** And the Tmax [5]?
**A.** The Tmax was 4 h.

**Q.** What about the “AUC 0-last” value [6] of the same molecule?
**A.** The value was 58677.2 ng·h/mL.

**Q.** And the HL [6]?
**A.** Its HL is 5.3 h.

**Q.** What about the Tmax [6] of the same molecule?
**A.** Its Tmax is 4 h.

**Q.** What about the “AUC 0-last” value [7] of the same molecule?
**A.** Its value is 58677.2 ng·h/mL.

**Q.** And the “Cmax ±SD” value [7]?
**A.** Its value is 4071.2 ng/mL.

**Q.** And the HL [7]?
**A.** The HL was 5.3 h.

**Q.** And the Tmax [7]?
**A.** The Tmax was 4 h.

**Q.** And the “AUC 0-last” value [8]?
**A.** The value was 39875.4 ng·h/mL.

**Q.** And the “Cmax ±SD” value [8]?
**A.** The value was 3372.3 ng/mL.

**Q.** What about the HL [8] of the same molecule?
**A.** Its HL is 5.4 h.

**Q.** What about the Tmax [8] of the same molecule?
**A.** Its Tmax is 4 h.

**Q.** What about the “amount of metabolite in plasma in comparison to 4-HPR” value of the same molecule?
**A.** The value was “about 50%”.

**Q.** What does the source list for COc1ccc(NC(=O)\C=C(C)/C=C/C=C(C)\C=C\C2=C(C)CCCC2(C)C)cc1 [MPR]?
**A.** Cmax ±SD [9]: 120.6 ng/mL; Cmax ±SD [10]: 778.9 ng/mL; Cmax ±SD [11]: 1112.6 ng/mL; Cmax ±SD [12]: 1070.5 ng/mL; AUC 0-last [3]: 1750.7 ng·h/mL; HL [3]: 9.4 h; Tmax [3]: 4 h; AUC 0-last [4]: 9931.5 ng·h/mL; HL [4]: 10.3 h; Tmax [4]: 4 h; AUC 0-last [5]: 15439.7 ng·h/mL; HL [5]: 8.6 h; Tmax [5]: 4 h; AUC 0-last [6]: 21449.6 ng·h/mL; HL [6]: 11.6 h; Tmax [6]: 4 h; AUC 0-last [7]: 21449.6 ng·h/mL; Cmax ±SD [7]: 1070.5 ng/mL; HL [7]: 11.6 h; Tmax [7]: 4 h; AUC 0-last [8]: 23406.1 ng·h/mL; Cmax ±SD [8]: 1407.0 ng/mL; HL [8]: 9.9 h; Tmax [8]: 4 h; amount of metabolite in plasma in comparison to 4-HPR: ~15%
